Source: patent US9532997B2, “Compositions and methods for promoting intestinal stem cell function” (Whitehead Institute for Biomedical Research, priority 2012, dated 2017)
Entries after “also recorded” stand apart in the source; their conditions may differ.

How the values were obtained:
[1] = test system: Paneth cells; assay: Frequency of Paneth cells by flow cytometry in rapamycin-treated mice; format: in vivo; conditions: Rapamycin 4 mg/kg daily i.p., 4 weeks, n=13-14, FIG. 3h
Description: Mice were housed in the Unit for Laboratory Animal Medicine at the Whitehead Institute for Biomedical Research. Lgr5-EGFP-IRES-CreERT2 mice (Strain name: B6.129P2-Lgr5tm1(cre/ERT2)Cle/J, Stock Number: 008875) were purchased from Jackson Laboratories. UbiquitinC-CreERT2 mice were obtained from the Jackson Laboratory (Strain Name: B6; 129S-Tg(UBC-cre/ERT2)1Ejb/J, Stock Number: 007001). Rictor floxed mice were generated as described in^27 and backcrossed to C57BL/6 for at least 6 generations. TSC1^loxp/loxp mice were the generous gift of D. Kwiatkowski (Harvard Medical School) and backcrossed to C57BL/6 for at least 6 generations. Rosa26-CreERT2 mice (Rosa26 or R26) were obtained from the Jackson Laboratory (Strain 15 Name: B6.129-Gt(ROSA)26Sor^iml(cre/ERT2)Tyj/J, Stock Number 008463). CR was achieved by providing individual or paired mice a daily portion of a chow diet fortified with vitamins and minerals amounting to 60% of the daily food intake of their ad libitum counterparts^20. All adult mice used in CR experiments were between the ages of 10 to 24 weeks and were sacrificed prior to their daily feeding. Rictor or TSC1 was excised by treatment with tamoxifen suspended in corn or sunflower seed oil (Spectrum) at a concentration of 10 mg/mL, and 200 μl per 25 g of body weight was injected intraperitoneally into mice once daily for 5-7 days. […]

[2] = test system: Lgr5hi ISCs combined with Paneth cells; assay: Organoid formation of Lgr5hi ISCs cocultured with Paneth cells from treated mice; format: in vivo; conditions: for organoid formation of ISCs combined with Paneth cells from rapamycin-treated mice vs vehicle/AL Paneth cells: n=3-5, FIG. 3l, FIG. 13c
Description: (§1) Mice were housed in the Unit for Laboratory Animal Medicine at the Whitehead Institute for Biomedical Research. Lgr5-EGFP-IRES-CreERT2 mice (Strain name: B6.129P2-Lgr5tm1(cre/ERT2)Cle/J, Stock Number: 008875) were purchased from Jackson Laboratories. UbiquitinC-CreERT2 mice were obtained from the Jackson Laboratory (Strain Name: B6; 129S-Tg(UBC-cre/ERT2)1Ejb/J, Stock Number: 007001). Rictor floxed mice were generated as described in^27 and backcrossed to C57BL/6 for at least 6 generations. TSC1^loxp/loxp mice were the generous gift of D. Kwiatkowski (Harvard Medical School) and backcrossed to C57BL/6 for at least 6 generations. Rosa26-CreERT2 mice (Rosa26 or R26) were obtained from the Jackson Laboratory (Strain 15 Name: B6.129-Gt(ROSA)26Sor^iml(cre/ERT2)Tyj/J, Stock Number 008463). CR was achieved by providing individual or paired mice a daily portion of a chow diet fortified with vitamins and minerals amounting to 60% of the daily food intake of their ad libitum counterparts^20. All adult mice used in CR experiments were between the ages of 10 to 24 weeks and were sacrificed prior to their daily feeding. Rictor or TSC1 was excised by treatment with tamoxifen suspended in corn or sunflower seed oil (Spectrum) at a concentration of 10 mg/mL, and 200 μl per 25 g of body weight was injected intraperitoneally into mice once daily for 5-7 days. […] Mice were allowed to recover for at least 7 days after the last tamoxifen injection prior to any experiments. In vivo fate mapping in Lgr5-EGFP-IRES-reERT2; Rosa26loxpstoploxp-LacZ compound mice was done with a single injection of tamoxifen given at 200 μl per 25 g. As described previously^28, Rapamycin (LC Laboratories) was administered by intraperitoneal injection for 7 to 28 consecutive doses at 4 mg/kg. It was reconstituted in absolute ethanol at 10 mg/ml and diluted in 5% Tween-80 (Sigma) and 5% PEG-400 (Hampton Research) before injection. The final volume of all injections was 200 μl. Regular insulin (Lilly) was administered at 0.75 U/kg diluted in PBS 20 minutes prior to sacrificing fasted mice.
Small intestines were removed and the fat/mesentery was dissected away. The intestinal lumen was washed with ice cold PBS (Mg—/Ca—) using a 18 G feeding needle (Roboz FN-7905) until the intestines appeared white/pink. They were then opened longitudinally. The mucous was removed by gently rubbing the intestine between fingers in cold PBS. The intestines were cut into 3 to 5 mm fragments and placed into 50 ml conical tubes that were fill with ice cold 30 ml of PBS (Mg—/Ca—)/EDTA (10 mM). The samples were incubated and shook intermittently on ice for 30 minutes continuously discarding and replacing (at least 3 times) the supernatant. The fragments were then continually resuspended with ice cold 30 ml PBS (Mg—/Ca—)/EDTA (10 mM) and intermittently shook on ice for 10 minutes, discarding the supernatant again for 3 times. The fragments were resuspended again with ice cold 30 ml PBS (Mg—/Ca—)/EDTA (10 mM) and incubated and intermittently shook while waiting on ice for 20 to 40 minutes. The samples were then triturated with a 10 ml pipette 1 to 2 times, and the contents were filtered twice through a 70-μm mesh (BD Falcon) into a 50 ml conical tube to remove villous material and tissue fragments. […] Crypts were removed from this step for crypt culture experiments and embedded in matrigel with crypt culture media. For ISC isolation, the crypt suspensions were centrifuged for 5 minutes at 250 g (4 C or room temperature). The pellets were gently resuspended in 1.0 ml of undiluted TrypLE Express (Invitrogen)+120 μl of DNase I (10 U/μl, Roche) and transferred to 15 ml conical tubes. The samples were incubated in a 32° C. water bath for 1.25 to 2 minutes, were not titurated, and were then placed on ice. 12 ml of cold SMEM was added to each sample and were gently triturated twice. The samples were then centrifuged for 5 minutes at 250 g.

[3] = biological target: T1, mTORC1 (Mus musculus, UniProt P26883+Q9JLN9); assay: Phospho-S6 (P-S6) immunostain as mTORC1 reporter in intestine / sorted Paneth cells; format: in vivo, mice; conditions: overnight fasted mice treated before refeeding 5 hours, FIG. 2a
T1 construct: from tissue; host or cells: mouse small intestine sections, isolated crypts and sorted Paneth cells
Description: as §1, with “mice. […]” for “mice.”

[4] = test system: enteroendocrine and goblet cells; assay: Enteroendocrine (chromogranin A) and goblet cell (Alcian blue) differentiation; format: in vivo, mice; conditions: FIG. 6a-b
Protocol: Tissues were fixed in 10% formalin, paraffin embedded, and sectioned. Antigen retrieval was performed with Borg Decloaker RTU solution (Biocare Medical) in a pressurized Decloaking Chamber (Biocare Medical) for 3 minutes. Antibodies: rat anti-BrdU (1:2000; Abeam 6326), rabbit phospho-S6 Ser235/236 (1:500, CST 4858), rabbit cleaved caspase 3 (1:500; CST 9664), rabbit chromogranin A (1:3000, Abeam 15160), rabbit Lysozyme (1:2000; Thermo), rabbit Bst-1 (1:1000, Abeam 74301) and mouse Bst-1 (1:100 to 500, BD Pharmingen). For mouse Bst-1, the M.O.M (mouse on mouse) kit was used according to the manufacturer's instructions (Vector labs PK-2200). Biotin conjugated secondary donkey anti-rabbit or rat antibodies were used from Jackson ImmunoResearch. The Vectastain Elite ABC immunoperoxidase detection kit (Vector Labs PK-6101) followed by Dako Liquid DAB+ Substrate (Dako) was used for visualization. For immunofluorescence Alexa Fluor 568 secondary antibodies (Invitrogen) were used. All antibody incubations were performed with Common Antibody Diluent (Biogenex).

[5] = test system: Paneth cells; assay: Paneth cell numbers in small intestine after 10 Gy ionizing radiation (histology); format: in vivo, mice; conditions: for number of Paneth cells vs irradiated control, pre- and post-treatment: 4 mg/kg IP daily 1 week, 10 Gy gamma rays, then intermittent rapamycin two weeks, FIG. 14c; for number of Paneth cells vs irradiated control, post-treatment only: 10 Gy followed by intermittent rapamycin over two weeks, FIG. 14b
Protocol: Paneth cells are essential to the survival of Lgr5+ intestinal stem cells. […] The clonogenicity of ISCs is enhanced by co-culturing of these cells with Paneth cells from mice treated with caloric restriction or rapamycin (FIG. 13a). […] Mice were also treated with 10 Gy of radiation followed by intermittent treatment with rapamycin over the two weeks. […] Accordingly, rapamycin and derivatives or analogs or other agents thereof which inhibit mTOR, and/or and caloric restriction can be employed as agents for increasing the number and function of intestinal stem cells and Paneth cells, and as radioprotective agents against the acute and late toxicities of deliberate and accidental exposure to ionizing radiation.

## CO[C@H]1C[C@@H]2CC[C@@H](C)[C@@](O)(O2)C(=O)C(=O)N2CCCC[C@H]2C(=O)O[C@H]([C@H](C)C[C@@H]2CC[C@@H](O)[C@H](OC)C2)CC(=O)[C@H](C)/C=C(\C)[C@@H](O)[C@@H](OC)C(=O)[C@H](C)C[C@H](C)/C=C/C=C/C=C/1C [Rapamycin, sirolimus]
[1]
  increase in frequency of Paneth cells vs vehicle: more than 1.5 fold
[2]; 4 mg/kg
  organoids per AL Lgr5hi ISC mixed with Paneth cells from treated mice, increase vs vehicle: ~2 fold
[2]; CR+R treated mice, FIG. 3j
  effect of combination of CR and rapamycin in ISC-Paneth cell coculture: non-additive
[2]; FIG. 3l
  direct effect on ISC function (clonogenicity of ISCs from treated vs vehicle mice): no direct effect on ISC function
[2]; FIG. 3m
  secondary organoid bodies derived from rapamycin-treated Paneth cells vs vehicle: larger and more complex
[2]; Paneth cells placed in nutrient rich media that activates mTORC1
  stability of augmented capacity of Paneth cells to promote ISC self-renewal: maintain their augmented capacity to promote ISC self-renewal
[2]
  organoid formation of ISCs combined with Paneth cells from rapamycin-treated mice vs vehicle/AL Paneth cells: significantly increased
[2]; listed as rapamycin
  organoid formation of ISCs combined with Paneth cells from rapamycin-treated mice vs vehicle/AL Paneth cells: prominent increase; also recorded: significantly increased
[3]
  mTORC1 activation (P-S6) in Paneth cells by feeding: blocked this activation
[4]
  effects on enteroendocrine and goblet cell differentiation: minimal effects
[5]
  number of Paneth cells vs irradiated control, pre- and post-treatment: increase in the number of morphologically normal Paneth cells
  number of Paneth cells vs irradiated control, post-treatment only: increase in the number of morphologically normal Paneth cells
[5]; listed as rapamycin
  number of Paneth cells vs irradiated control, pre- and post-treatment: significantly higher numbers of Paneth cells
  number of Paneth cells vs irradiated control, post-treatment only: significantly higher numbers of Paneth cells
